Experimental data: patent US12479850B2, “Compound having Axl and c-Met kinase inhibitory activity, preparation thereof and application thereof” (Shanghai Institute of Materia Medica, Chinese Academy of …, priority 2019, dated 2025)

Tests used:
[1] = target: T1, Axl kinase domain recombinant protein (Homo sapiens, UniProt P30530); test: ELISA kinase activity assay, Axl
T1 sequence (P30530 536-807 limits assumed): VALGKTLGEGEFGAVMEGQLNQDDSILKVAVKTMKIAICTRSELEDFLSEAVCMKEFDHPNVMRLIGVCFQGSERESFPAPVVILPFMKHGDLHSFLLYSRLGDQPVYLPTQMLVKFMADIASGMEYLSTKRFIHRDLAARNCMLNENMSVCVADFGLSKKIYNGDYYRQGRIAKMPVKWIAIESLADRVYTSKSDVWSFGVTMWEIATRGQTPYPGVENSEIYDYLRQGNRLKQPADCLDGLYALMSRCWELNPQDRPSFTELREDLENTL

[2] = target: c-Met kinase domain recombinant protein (Homo sapiens, UniProt P08581); test: ELISA kinase activity assay, c-Met
Chain of c-Met kinase domain recombinant protein (P08581 1078-1345 limits assumed): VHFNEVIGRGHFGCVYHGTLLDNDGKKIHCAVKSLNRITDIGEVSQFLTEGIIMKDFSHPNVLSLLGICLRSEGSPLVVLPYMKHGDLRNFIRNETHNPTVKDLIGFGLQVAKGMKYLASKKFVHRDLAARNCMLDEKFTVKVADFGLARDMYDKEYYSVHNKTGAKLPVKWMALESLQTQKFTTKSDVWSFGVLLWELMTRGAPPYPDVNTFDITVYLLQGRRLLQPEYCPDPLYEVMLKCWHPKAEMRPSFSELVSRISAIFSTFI

Row | IC50 [1] [µM] | IC50 [2] [µM] | SMILES
1 | < 0.01 | < 0.01 | Cn1cc(-c2cc(Oc3ccc(NC(=O)c4cn(C)c(=O)n(-c5ccc(F)cc5)c4=O)cc3F)ccn2)cn1 [No. 1, N-(3-fluoro-4-((2-(1-methyl-1H-pyrazol-4-yl)pyridin-4-yl)oxy)phenyl)-3-(4-fluorophenyl)-1-methyl-2,4-dioxo-1,2,3,4-tetrahydropyrimidin-5-carboxamide]
2 | < 0.01 | < 0.01 | CCn1cc(C(=O)Nc2ccc(Oc3ccnc(-c4cnn(C)c4)c3)c(F)c2)c(=O)n(-c2ccc(F)cc2)c1=O [No. 2, 1-ethyl-N-(3-fluoro-4-((2-(1-methyl-1H-pyrazol-4-yl)pyridin-4-yl)oxy)phenyl)-3-(4-fluorophenyl)-2,4-dioxo-1,2,3,4-tetrahydropyrimidin-5-formamide]
3 |  | < 0.01 | CC(C)n1cc(C(=O)Nc2ccc(Oc3ccnc(-c4cnn(C)c4)c3)c(F)c2)c(=O)n(-c2ccc(F)cc2)c1=O [No. 3, N-(3-fluoro-4-((2-(1-methyl-1H-pyrazol-4-yl)pyridin-4-yl)oxy)phenyl)-3-(4-fluorophenyl)-1-isopropyl-2,4-dioxo-1,2,3,4-tetrahydropyrimidin-5-carboxamide]
4 | < 0.01 | < 0.01 | CCCn1cc(C(=O)Nc2ccc(Oc3ccnc(-c4cnn(C)c4)c3)c(F)c2)c(=O)n(-c2ccc(F)cc2)c1=O [No. 4, N-(3-fluoro-4-((2-(1-methyl-1H-pyrazol-4-yl)pyridin-4-yl)oxy)phenyl)-3-(4-fluorophenyl)-1-propyl-2,4-dioxo-1,2,3,4-tetrahydropyrimidin-5-carboxamide]
5 | < 0.01 | < 0.01 | Cn1cc(-c2cc(Oc3ccc(NC(=O)c4cn(CC5CC5)c(=O)n(-c5ccc(F)cc5)c4=O)cc3F)ccn2)cn1 [No. 5, 1-(cyclopropylmethyl)-N-(3-fluoro-4-((2-(1-methyl-1H-pyrazol-4-yl)pyridin-4-yl)oxy)phenyl)-3-(4-fluorophenyl)-2,4-dioxo-1,2,3,4-tetrahydropyrimidin-5-carboxamide]
6 | 0.01 to 0.1 | 0.01 to 0.1 | Cn1cc(-c2cc(Oc3ccc(NC(=O)c4cn(CC5CCCC5)c(=O)n(-c5ccc(F)cc5)c4=O)cc3F)ccn2)cn1 [No. 6, 1-(cyclopentylmethyl)-N-(3-fluoro-4-((2-(1-methyl-1H-pyrazol-4-yl)pyridin-4-yl)oxy)phenyl)-3-(4-fluorophenyl)-2,4-dioxo-1,2,3,4-tetrahydropyrimidin-5-carboxamide]
7 | < 0.01 | < 0.01 | C=CCn1cc(C(=O)Nc2ccc(Oc3ccnc(-c4cnn(C)c4)c3)c(F)c2)c(=O)n(-c2ccc(F)cc2)c1=O [No. 7, 1-allyl-N-(3-fluoro-4-((2-(1-methyl-1H-pyrazol-4-yl)pyridin-4-yl)oxy)phenyl)-3-(4-fluorophenyl)-2,4-dioxo-1,2,3,4-tetrahydropyrimidin-5-carboxamide]
8 | 0.01 to 0.1 | 0.01 to 0.1 | C#CCn1cc(C(=O)Nc2ccc(Oc3ccnc(-c4cnn(C)c4)c3)c(F)c2)c(=O)n(-c2ccc(F)cc2)c1=O [No. 8, N-(3-fluoro-4-((2-(1-methyl-1H-pyrazol-4-yl)pyridin-4-yl)oxy)phenyl)-3-(4-fluorophenyl)-2,4-dioxo-1-propargyl-1,2,3,4-tetrahydropyrimidin-5-carboxamide]
9 | > 0.1 | 0.01 to 0.1 | Cn1cc(-c2cc(Oc3ccc(NC(=O)c4cn(CCO)c(=O)n(-c5ccc(F)cc5)c4=O)cc3F)ccn2)cn1 [No. 9, N-(3-fluoro-4-((2-(1-methyl-1H-pyrazol-4-yl)pyridin-4-yl)oxy)phenyl)-3-(4-fluorophenyl)-1-(2-hydroxyethyl)-2,4-dioxo-1,2,3,4-tetrahydropyrimidin-5-carboxamide]
10 |  | < 0.01 | CC(C)n1cc(C(=O)Nc2ccc(Oc3ccnc(-c4cnn(C)c4)c3)cc2)c(=O)n(-c2ccc(F)cc2)c1=O [No. 25, 3-(4-fluorophenyl)-1-isopropyl-N-(4-((2-(1-methyl-1H-pyrazol-4-yl)pyridin-4-yl)oxy)phenyl)-2,4-dioxo-1,2,3,4-tetrahydropyrimidin-5-carboxamide]
11 |  | < 0.01 | CC(C)n1cc(C(=O)Nc2ccc(Oc3ccnc(-c4cnn(C)c4)c3)cc2F)c(=O)n(-c2ccc(F)cc2)c1=O [No. 26, N-(2-fluoro-4-((2-(1-methyl-1H-pyrazol-4-yl)pyridin-4-yl)oxy)phenyl)-3-(4-fluorophenyl)-1-isopropyl-2,4-dioxo-1,2,3,4-tetrahydropyrimidin-5-carboxamide]
12 |  | 0.01 to 0.1 | CC(C)n1cc(C(=O)Nc2ccc(Oc3ccnc(-c4cnn(C)c4)c3)c(F)c2F)c(=O)n(-c2ccc(F)cc2)c1=O [No. 27, N-(2,3-difluoro-4-((2-(1-methyl-1H-pyrazol-4-yl)pyridin-4-yl)oxy)phenyl)-3-(4-fluorophenyl)-1-isopropyl-2,4-dioxo-1,2,3,4-tetrahydropyrimidin-5-carboxamide]
13 |  | < 0.01 | CC(C)n1cc(C(=O)Nc2cc(F)c(Oc3ccnc(-c4cnn(C)c4)c3)c(F)c2)c(=O)n(-c2ccc(F)cc2)c1=O [No. 28, N-(3,5-difluoro-4-((2-(1-methyl-1H-pyrazol-4-yl)pyridin-4-yl)oxy)phenyl)-3-(4-fluorophenyl)-1-isopropyl-2,4-dioxo-1,2,3,4-tetrahydropyrimidin-5-carboxamide]
14 |  | < 0.01 | CC(C)n1cc(C(=O)Nc2cc(F)c(Oc3ccnc(-c4cnn(C)c4)c3)cc2F)c(=O)n(-c2ccc(F)cc2)c1=O [No. 29, N-(2,5-difluoro-4-((2-(1-methyl-1H-pyrazol-4-yl)pyridin-4-yl)oxy)phenyl)-3-(4-fluorophenyl)-1-isopropyl-2,4-dioxo-1,2,3,4-tetrahydropyrimidin-5-carboxamide]
15 |  | 0.01 to 0.1 | CC(C)n1cc(C(=O)Nc2ccc(Oc3ccnc(-c4cn[nH]c4)c3)c(F)c2)c(=O)n(-c2ccc(F)cc2)c1=O [No. 31, N-(4-((2-(1H-pyrazol-4-yl)pyridin-4-yl)oxy)-3-fluorophenyl)-3-(4-fluorophenyl)-1-isopropyl-2,4-dioxo-1,2,3,4-tetrahydropyrimidin-5-carboxamide]
16 |  | 0.01 to 0.1 | CC(C)n1cc(C(=O)Nc2ccc(Oc3ccnc(-c4cnn(CC(C)(C)O)c4)c3)c(F)c2)c(=O)n(-c2ccc(F)cc2)c1=O [No. 32, N-(3-fluoro-4-((2-(1-(2-hydroxy-2-methylpropyl)-1H-pyrazol-4-yl)pyridin-4-yl)oxy)phenyl)-3-(4-fluorophenyl)-1-isopropyl-2,4-dioxo-1,2,3,4-tetrahydropyrimidin-5-carboxamide]
17 |  | 0.01 to 0.1 | CC(C)n1cc(C(=O)Nc2ccc(Oc3ccnc(-c4cnn(C5CC5)c4)c3)c(F)c2)c(=O)n(-c2ccc(F)cc2)c1=O [No. 33, N-(4-((2-(1-cyclopropyl-1H-pyrazol-4-yl)pyridin-4-yl)oxy)-3-fluorophenyl)-3-(4-fluorophenyl)-1-isopropyl-2,4-dioxo-1,2,3,4-tetrahydropyrimidin-5-carboxamide]
18 |  | 0.01 to 0.1 | CC(C)n1cc(C(=O)Nc2ccc(Oc3ccnc(-c4cnn(CCN5CCN(C)CC5)c4)c3)c(F)c2)c(=O)n(-c2ccc(F)cc2)c1=O [No. 34, N-(3-fluoro-4-((2-(1-(2-(4-methylpiperazin-1-yl)ethyl)-1H-pyrazol-4-yl)pyridin-4-yl)oxy)phenyl)-3-(4-fluorophenyl)-1-isopropyl-2,4-dioxo-1,2,3,4-tetrahydropyrimidin-5-carboxamide]
19 |  | 0.01 to 0.1 | Cc1nn(C)cc1-c1cc(Oc2ccc(NC(=O)c3cn(C(C)C)c(=O)n(-c4ccc(F)cc4)c3=O)cc2F)ccn1 [No. 35, N-(4-((2-(1,3-dimethyl-1H-pyrazol-4-yl)pyridin-4-yl)oxy)-3-fluorophenyl)-3-(4-fluorophenyl)-1-isopropyl-2,4-dioxo-1,2,3,4-tetrahydropyrimidin-5-carboxamide]
20 |  | 0.01 to 0.1 | CC(C)n1cc(C(=O)Nc2ccc(Oc3ccncc3-c3cnn(C)c3)cc2)c(=O)n(-c2ccc(F)cc2)c1=O [No. 36, 3-(4-fluorophenyl)-1-isopropyl-N-(4-((3-(1-methyl-1H-pyrazol-4-yl)pyridin-4-yl)oxy)phenyl)-2,4-dioxo-1,2,3,4-tetrahydropyrimidin-5-carboxamide]
21 |  | 0.01 to 0.1 | CCn1cc(C(=O)Nc2ccc(Oc3ccncc3-c3cnn(C)c3)cc2)c(=O)n(-c2ccc(F)cc2)c1=O [No. 52, 3-(4-fluorophenyl)-1-ethyl-N-(4-((3-(1-methyl-1H-pyrazol-4-yl)pyridin-4-yl)oxy)phenyl)-2,4-dioxo-1,2,3,4-tetrahydropyrimidin-5-carboxamide]
22 |  | > 0.1 | Cn1cc(-c2cnccc2Oc2ccc(NC(=O)c3cn(C)c(=O)n(-c4ccc(F)cc4)c3=O)cc2)cn1 [No. 53, 3-(4-fluorophenyl)-1-methyl-N-(4-((3-(1-methyl-1H-pyrazol-4-yl)pyridin-4-yl)oxy)phenyl)-2,4-dioxo-1,2,3,4-tetrahydropyrimidin-5-carboxamide]
23 |  | 0.01 to 0.1 | Cn1cc(-c2cnccc2Oc2ccc(NC(=O)c3cn(CC4CCOCC4)c(=O)n(-c4ccc(F)cc4)c3=O)cc2)cn1 [No. 54, 3-(4-fluorophenyl)-N-(4-((3-(1-methyl-1H-pyrazol-4-yl)pyridin-4-yl)oxy)phenyl)-2,4-dioxo-1-((tetrahydro-2H-pyran-4-yl)methyl)-1,2,3,4-tetrahydropyrimidin-5-carboxamide]
24 | > 0.1 |  | COc1cc(NC(=O)c2cn(C(C)C)c(=O)n(-c3ccc(F)cc3)c2=O)ccc1Oc1ccnc(-c2cnn(C)c2)c1 [No. 58, 3-(4-fluorophenyl)-1-isopropyl-N-(3-methoxy-4-((2-(1-methyl-1H-pyrazol-4-yl)pyridin-4-yl)oxy)phenyl)-2,4-dioxo-1,2,3,4-tetrahydropyrimidin-5-carboxamide]
